Some results are limits rather than exact numbers.

In one experiment the test system is Akt. The experiment in a line: Kinase functional assay (mobility shift), Akt. The class given is biochemical.
For the next experiment, the target named is T1, ARTD12/PARP12 (Homo sapiens, UniProt Q9H0J9).
T1 sequence (Q9H0J9 484-698 limits assumed): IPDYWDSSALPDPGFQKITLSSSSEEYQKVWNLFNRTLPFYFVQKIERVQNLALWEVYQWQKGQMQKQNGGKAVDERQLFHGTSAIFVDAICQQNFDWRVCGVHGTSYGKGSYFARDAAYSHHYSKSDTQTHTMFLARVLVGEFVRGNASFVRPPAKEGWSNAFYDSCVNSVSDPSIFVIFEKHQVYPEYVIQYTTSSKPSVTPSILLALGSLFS
The experiment in a line: ARTD profiling, ARTD12.

The target of the next experiment is ARTD5/TNKS1 (Homo sapiens, UniProt O95271). The experiment in a line: NAD+ quantification activity assay, TNKS1. The class given is biochemical. The conditions noted are these: NAD+ 500 nM. Here is the method: (§1) Protein (nM) NAD+ (nM) Incubation Buffer
(§2) Kinase [ATP] Substrate Incubation Reaction buffer

Another experiment addresses GSK3β (Homo sapiens, UniProt P49841). The experiment in a line: Kinase functional assay (mobility shift), GSK3β. Format: biochemical. The conditions noted are these: read-out: GSK3β (% Inhib.); for inhibition at 1 µM: 1 µM compound, Table S3; for inhibition at 10 µM: 10 µM compound, Table S4.
The target of another experiment is T2, ARTD7/PARP15 (Homo sapiens, UniProt Q460N3).
T2 sequence (Q460N3 482-678 limits assumed): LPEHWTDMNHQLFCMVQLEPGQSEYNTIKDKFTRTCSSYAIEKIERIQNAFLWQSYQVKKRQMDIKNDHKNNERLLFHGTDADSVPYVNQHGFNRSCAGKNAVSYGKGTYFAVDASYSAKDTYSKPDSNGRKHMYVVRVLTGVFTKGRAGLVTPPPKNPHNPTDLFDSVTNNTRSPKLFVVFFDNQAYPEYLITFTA
The experiment in a line: ARTD profiling, ARTD7.

A further experiment addresses ERK2 (Homo sapiens, UniProt P28482). The experiment in a line: Kinase functional assay (mobility shift), ERK2 (p42). Format: biochemical. The conditions noted are these: read-out: ERK2 (% Inhib.); for inhibition at 1 µM: 1 µM compound, Table S3; for inhibition at 10 µM: 10 µM compound, Table S4.
For experiment [1], the system named is Wnt/β-catenin signaling (TCF/LEF Reporter HEK293 Cell Line). The experiment in a line: Wnt signaling TCF/LEF reporter assay in HEK293 cells. The class given is cell-based, human. The note with it: for Wnt (HEK293) inhibition at 1 µM: 1 µM compound; for inhibition at 1 µM: HEK293, 1 µM compound. As to the method:
The Wnt assay was performed using a procedure modified from the BPS Bioscience protocol. Details are given in the Supplementary Methods. […]
The Wnt Signaling Pathway TCF/LEF Reporter HEK293 Cell Line (BPS Bioscience, catalog […]
Reporter HEK293 cells were grown at 37 °C with 5% CO2 using Dulbecco's Modified Eagle's Medium (DMEM, Sigma), supplemented with 10% of fetal bovine serum (Lonza), 1% non-essential amino acid (Sigma), 1X of penicillin and streptomycin (Sigma), and 400 µg/ml of Geneticin (Roche). Wnt-3a and L cells (ATCC) were cultured in Dulbecco’s modified Eagle’s medium supplemented with 10% fetal bovine serum, penicillin and streptomycin at 37 °C in a 5%
CO2. Wnt3a and control conditioned medium preparation has been described previously1. The Wnt assay was performed using a procedure modified from the BPS Bioscience protocol. 30,000 HEK293 cells/well in 40 µl of serum-free DMEM were plated on 96-well plate (white wells, clear […]
bottom, PerkinElmer). 10 µl of 50 mM LiCl in serum-free DMEM with 5x concentration of DMSO or tankyrase inhibitors was added. After 16 hours of incubation, 25 µl of Wnt3a or control conditioned medium supplemented with DMSO or tankyrase inhibitors was added on cells and cells were incubated for additional 24 hours. After the second incubation, the 96-well plates were balanced in room temperature for 30 minutes. Wnt3a induced luciferase activity was determined using ONE-Glo Luciferase Assay System (Promega) according to manufacturer’s protocol. […]
Difference Fourier method deriving the starting phases from 3U9H. The refinement of the structures was done with REFMAC5.5,6 Final manual building, analysis and visualization of the structures were made with Coot7 and PyMOL (www.pymol.org). All chemical structures were drawn with Marvin (Marvin 5.7.0 2011, ChemAxon, http://www.chemaxon.com). The docking studies were performed using GOLD software.8

The next experiment has as its target ARTD1/PARP1 (Homo sapiens, UniProt P09874). The experiment in a line: ARTD profiling, ARTD1.
For the next experiment, the target named is T3, ARTD10/PARP10 (Homo sapiens, UniProt Q53GL7).
T3 sequence (Q53GL7 806-1025 limits assumed): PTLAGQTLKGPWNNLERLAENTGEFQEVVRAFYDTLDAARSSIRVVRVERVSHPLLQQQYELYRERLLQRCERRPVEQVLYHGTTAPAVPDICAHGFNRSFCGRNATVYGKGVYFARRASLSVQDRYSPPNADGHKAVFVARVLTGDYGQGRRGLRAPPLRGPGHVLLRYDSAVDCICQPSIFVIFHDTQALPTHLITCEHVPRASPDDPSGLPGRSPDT
The experiment in a line: ARTD profiling, ARTD10.

The next experiment addresses T4, ARTD3/PARP3 (Homo sapiens, UniProt Q9Y6F1).
T4 sequence (Q9Y6F1 1-533): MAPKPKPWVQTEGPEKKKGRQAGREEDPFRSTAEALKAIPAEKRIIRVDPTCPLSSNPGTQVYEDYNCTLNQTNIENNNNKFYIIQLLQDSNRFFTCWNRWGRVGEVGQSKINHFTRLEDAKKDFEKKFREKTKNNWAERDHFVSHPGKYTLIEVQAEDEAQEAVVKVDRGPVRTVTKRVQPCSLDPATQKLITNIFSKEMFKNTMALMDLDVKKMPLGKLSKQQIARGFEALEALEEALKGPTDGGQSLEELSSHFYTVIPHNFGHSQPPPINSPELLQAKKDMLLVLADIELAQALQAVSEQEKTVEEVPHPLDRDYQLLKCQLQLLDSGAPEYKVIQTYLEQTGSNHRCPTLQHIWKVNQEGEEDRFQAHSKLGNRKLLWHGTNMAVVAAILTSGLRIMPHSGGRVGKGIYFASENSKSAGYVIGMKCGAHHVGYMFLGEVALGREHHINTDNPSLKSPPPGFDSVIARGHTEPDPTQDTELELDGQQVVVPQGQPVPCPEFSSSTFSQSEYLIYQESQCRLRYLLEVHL
The experiment in a line: ARTD profiling, ARTD3. Format: biochemical. The conditions noted are these: NAD+ 500 nM. As to the method: as §1, §2

Setting [2] is: Homo sapiens, TCF/LEF reporter HEK293.

ERK2, sequence (P28482 whole entry, species assumed): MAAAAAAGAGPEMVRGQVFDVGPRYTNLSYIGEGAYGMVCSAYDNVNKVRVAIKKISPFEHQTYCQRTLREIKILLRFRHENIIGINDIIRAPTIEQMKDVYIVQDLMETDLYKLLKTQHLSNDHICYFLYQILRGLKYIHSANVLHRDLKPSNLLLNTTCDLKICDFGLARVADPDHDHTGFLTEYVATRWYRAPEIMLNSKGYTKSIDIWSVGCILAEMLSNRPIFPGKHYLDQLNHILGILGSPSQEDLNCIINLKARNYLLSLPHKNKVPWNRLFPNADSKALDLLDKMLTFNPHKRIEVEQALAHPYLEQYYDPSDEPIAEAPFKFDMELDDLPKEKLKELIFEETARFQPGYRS
GSK3β, sequence (P49841 whole entry, species assumed): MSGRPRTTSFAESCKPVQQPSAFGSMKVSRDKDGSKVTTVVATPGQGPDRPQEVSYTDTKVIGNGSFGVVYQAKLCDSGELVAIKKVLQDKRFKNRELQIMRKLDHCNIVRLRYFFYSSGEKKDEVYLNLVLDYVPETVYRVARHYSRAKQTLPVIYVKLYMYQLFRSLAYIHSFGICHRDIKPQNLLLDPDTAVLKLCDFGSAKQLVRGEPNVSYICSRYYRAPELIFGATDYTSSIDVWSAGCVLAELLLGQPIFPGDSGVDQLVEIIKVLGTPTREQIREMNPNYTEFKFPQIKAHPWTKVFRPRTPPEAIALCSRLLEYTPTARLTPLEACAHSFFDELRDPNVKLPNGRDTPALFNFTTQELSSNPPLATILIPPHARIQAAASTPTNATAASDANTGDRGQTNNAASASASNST
ARTD1/PARP1, sequence (P09874 whole entry): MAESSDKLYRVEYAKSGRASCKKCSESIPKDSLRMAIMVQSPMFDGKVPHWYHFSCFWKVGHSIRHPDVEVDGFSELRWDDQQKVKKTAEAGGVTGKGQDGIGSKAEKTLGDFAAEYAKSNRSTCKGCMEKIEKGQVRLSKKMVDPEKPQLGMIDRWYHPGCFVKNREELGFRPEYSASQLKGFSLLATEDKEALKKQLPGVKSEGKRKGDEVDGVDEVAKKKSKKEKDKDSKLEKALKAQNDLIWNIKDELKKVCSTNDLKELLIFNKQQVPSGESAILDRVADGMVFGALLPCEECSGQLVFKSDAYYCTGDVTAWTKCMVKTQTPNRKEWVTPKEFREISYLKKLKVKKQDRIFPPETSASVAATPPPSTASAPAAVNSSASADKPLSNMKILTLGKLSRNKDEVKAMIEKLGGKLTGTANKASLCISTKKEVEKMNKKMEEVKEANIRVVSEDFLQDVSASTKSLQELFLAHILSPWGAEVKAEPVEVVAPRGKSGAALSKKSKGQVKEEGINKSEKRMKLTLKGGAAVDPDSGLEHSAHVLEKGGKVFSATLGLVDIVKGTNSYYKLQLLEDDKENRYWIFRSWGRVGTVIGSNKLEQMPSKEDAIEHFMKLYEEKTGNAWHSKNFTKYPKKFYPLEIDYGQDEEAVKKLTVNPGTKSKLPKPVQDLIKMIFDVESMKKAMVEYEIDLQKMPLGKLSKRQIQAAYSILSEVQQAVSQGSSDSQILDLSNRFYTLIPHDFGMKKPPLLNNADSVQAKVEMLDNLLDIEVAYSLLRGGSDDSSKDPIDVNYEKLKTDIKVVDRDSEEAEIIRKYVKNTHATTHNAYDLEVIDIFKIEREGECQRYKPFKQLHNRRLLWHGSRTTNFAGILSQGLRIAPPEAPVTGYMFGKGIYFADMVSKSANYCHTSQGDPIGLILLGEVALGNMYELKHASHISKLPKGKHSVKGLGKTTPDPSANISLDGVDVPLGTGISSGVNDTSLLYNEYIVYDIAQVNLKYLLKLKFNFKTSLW
ARTD5/TNKS1, sequence (O95271 1112-1317): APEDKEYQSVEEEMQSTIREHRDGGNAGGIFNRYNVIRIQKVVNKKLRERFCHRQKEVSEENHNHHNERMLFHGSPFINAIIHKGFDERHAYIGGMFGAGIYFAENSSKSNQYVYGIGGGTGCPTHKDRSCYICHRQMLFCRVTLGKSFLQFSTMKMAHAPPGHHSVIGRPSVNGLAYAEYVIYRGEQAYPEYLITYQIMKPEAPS

As to `O=c1[nH]c(-c2ccc(N3CCCCC3)cc2)nc2ccccc12` [Compound 30], the “AKT (% Inhib.)” value was found to be 1 ± 1% with Akt (1 µM compound, Table S3) and 2 ± 2% in the experiment with Akt (10 µM compound, Table S4). The IC50 was more than 10 µM on ARTD12/PARP12; 0.03 µM against ARTD5/TNKS1; more than 10 µM against ARTD7/PARP15; 0.57 µM in experiment [1] (setting [2]); 18 µM at ARTD1/PARP1; more than 10 µM at ARTD10/PARP10. On ARTD3/PARP3, the IC50 worked out at 23 µM. Besides, the inhibition at 1 µM on GSK3β turned out to be 1 ± 1%; at ERK2 it was 2 ± 1%; in experiment [1] (setting [2]), 61%. Further, the inhibition at 10 µM on GSK3β was 11 ± 3%; at ERK2 it was 3 ± 1%. In addition, the “Wnt (HEK293) inhibition at 1 µM” value in [1] (TCF/LEF reporter HEK293) is recorded as more than 50%.
Take `CCN(CC)c1ccc(-c2nc3ccccc3c(=O)[nH]2)cc1` [Compound 32]: the “AKT (% Inhib.)” value in the experiment with Akt (1 µM compound, Table S3) is given as 1 ± 1%; in the experiment with Akt (10 µM compound, Table S4), 48 ± 4%. In addition, the IC50 against ARTD12/PARP12 is more than 10 µM; at ARTD5/TNKS1, 0.011 µM; against ARTD7/PARP15, more than 10 µM; on ARTD1/PARP1 it was 30 µM; at ARTD10/PARP10, more than 10 µM; on ARTD3/PARP3, 2.1 µM. Moreover, the results for the inhibition at 1 µM (on GSK3β; on ERK2; in experiment [1] (setting [2])) were 1 ± 1%, 2 ± 1% and more than 50%, respectively. In addition, the inhibition at 10 µM at GSK3β stood at 4 ± 4%; on ERK2, 18 ± 3%. For the same molecule, the “Wnt (HEK293) inhibition at 1 µM” value in experiment [1] (TCF/LEF reporter HEK293) came out at 63%. Besides, the “Effect on Wnt/β-catenin signaling at lower concentrations” value in experiment [1] (concentrations below 1 µM) is recorded as “activated Wnt/β-catening signaling”.

The record behind these values is PMC5785997, “2-Phenylquinazolinones as dual-activity tankyrase-kinase inhibitors” (Scientific Reports, 2018).
